Patent US20210330611A1, “THERAPY FOR NEUROLOGICAL DISEASES/DISORDERS” (priority 2020, published 2021)
Structures can show the parent of a compound that is named as a salt. Where two headings read alike, the source gives them in different places.

Experiments:
[1] = system: primary rat microglia; assay: Cell toxicity (dead cells, size <150 μm2) in coated fibrin (cFib) assay;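 also: share of dead cells sized under 150 µm2 at 10 µM in fibrin-stimulated microglia HTS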
[2] = system: fibrin- and LPS-induced microglia activation; assay: cells; assay type: cell-based, rat
[3] = system: LPS-induced microglia activation; assay: Image-based assay of LPS-induced microglia activation (HTS and dose response); assay type: cell-based, rat; details: for inhibition at 10 µM: Rattus norvegicus, Microglia, read-out: LPS % inhibition
[4] = system: primary rat microglia; assay: Cell toxicity (dead cells, size <150 μm2) in LPS assay
[5] = system: fibrin-induced microglia activation; assay: Image-based assay of fibrin-induced microglia activation (HTS and dose response); assay type: cell-based, rat; details: for inhibition at 10 µM: Rattus norvegicus, Microglia, read-out: Fibrin % inhibition
[6] = primary microglia HTS, fibrin stimulation, toxicity = cell size <150 μm2
[7] = quadrant by fibrin and LPS inhibition in HTS of 1907 compounds
[8] = 48 h, primary microglia HTS, LPS stimulation, activation = cell size >800 μm2
[9] = primary microglia HTS, LPS stimulation, toxicity = cell size <150 μm2
[10] = primary microglia HTS, fibrin stimulation, activation = cell size >800 μm2
[11] = primary HTS, 10 μM, fibrin assay, dead cells size <150 μm2
[12] = primary HTS, 10 μM, LPS-stimulated primary microglia
[13] = primary HTS, 10 μM, LPS assay, dead cells size <150 μm2
[14] = primary HTS, 10 μM, fibrin-stimulated primary microglia
[15] = primary microglia HTS, fibrin stimulation, decreased size (<150 μm^2) as marker of toxicity
[16] = 48 h, primary microglia HTS, LPS stimulation, increased cell size (>800 μm^2) as marker of activation
[17] = primary microglia HTS, LPS stimulation, decreased size (<150 μm^2) as marker of toxicity
[18] = primary microglia HTS, fibrin stimulation, increased cell size (>800 μm^2) as marker of activation
[19] = primary microglia HTS, 10 μM, fibrin assay, cell size <150 μm^2 as marker of toxicity
[20] = HTS of 1907 compounds, quadrant by fibrin and LPS inhibition
[21] = primary microglia HTS, 10 μM, LPS-stimulated, cell size >800 μm^2 as marker of activation
[22] = primary microglia HTS, 10 μM, LPS assay, cell size <150 μm^2 as marker of toxicity
[23] = primary microglia HTS, 10 μM, fibrin-stimulated, cell size >800 μm^2 as marker of activation
[24] = primary microglia HTS, LPS stimulation, increased cell size (>800 μm^2) as marker of activation

CCN1CCC[C@H]1CNC(=O)c1cc(S(N)(=O)=O)ccc1OC [Levosulpiride]
Fibrin % cell toxicity [1, 6]: 1% | Quadrant (FIG. 5b) [2, 7]: Q4 | inhibition at 10 µM [3, 8]: 18% | LPS % cell toxicity [4, 9]: 0% | inhibition at 10 µM [5, 10]: -36%

CCCCOc1cc(C(=O)NCCN(CC)CC)c2ccccc2n1 [Cinchocaine]
Fibrin % cell toxicity [1, 11]: 0% | Quadrant (FIG. 5b) ([2]; primary HTS, 10 μM): Q4 | inhibition at 10 µM [3, 12]: 7% | LPS % cell toxicity [4, 13]: 0% | inhibition at 10 µM [5, 14]: -57%

CN1CCN(C2=Nc3ccccc3Oc3ccc(Cl)cc32)CC1 [Loxapine]
Fibrin % cell toxicity [1, 15]: 0% | Quadrant (FIG. 5b) [2, 7]: Q4 | inhibition at 10 µM [3, 16]: 9% | LPS % cell toxicity [4, 17]: 0% | inhibition at 10 µM [5, 18]: -41%

OCc1ccccc1 [Benzyl Alcohol]
Fibrin % cell toxicity [1, 11]: 0% | Quadrant (FIG. 5b) ([2]; primary HTS, 10 μM): Q4 | inhibition at 10 µM [3, 12]: 11% | LPS % cell toxicity [4, 13]: 0% | inhibition at 10 µM [5, 14]: -54%

CC1=C(CC(=O)O)c2cc(F)ccc2/C1=C\c1ccc(S(C)(=O)=O)cc1 [Sulindac Sulfone]
Fibrin % cell toxicity [1, 19]: 1% | Quadrant (FIG. 5b) [2, 20]: Q4 | LPS % inhibition [3, 21]: 3% | LPS % cell toxicity [4, 22]: 0% | Fibrin % inhibition [5, 23]: −27%

O=C1C2CC3CC1CC(O)(C3)C2 [Idramantone]
Fibrin % cell toxicity [1, 6]: 1% | Quadrant (FIG. 5b) [2, 7]: Q4 | inhibition at 10 µM [3, 8]: 8% | LPS % cell toxicity [4, 9]: 0% | inhibition at 10 µM [5, 10]: -7%

CC(S)C(=O)NCC(=O)O (stereo not drawn) [Tiopronin]
Fibrin % cell toxicity [1, 19]: 1% | Quadrant (FIG. 5b) [2, 20]: Q4 | inhibition at 10 µM [3, 21]: 6% | LPS % cell toxicity [4, 22]: 0% | inhibition at 10 µM [5, 23]: -8%

C[C@@H]1CC(=O)NN=C1c1ccc(NN=C(C#N)C#N)cc1 [Levosimendan]
Fibrin % cell toxicity [1, 6]: 1% | Quadrant (FIG. 5b) [2, 7]: Q4 | inhibition at 10 µM [3, 8]: 42% | LPS % cell toxicity [4, 9]: 0% | inhibition at 10 µM [5, 10]: 46%

CC(C)/N=c1\cc2n(-c3ccc(Cl)cc3)c3ccccc3nc-2cc1Nc1ccc(Cl)cc1 [Clofazimine]
Fibrin % cell toxicity [1, 11]: 1% | Quadrant (FIG. 5b) ([2]; primary HTS, 10 μM): Q4 | inhibition at 10 µM [3, 12]: 15% | LPS % cell toxicity [4, 13]: 0% | inhibition at 10 µM [5, 14]: 23%

Capreomycin Sulfate
Fibrin % cell toxicity [1, 11]: 1% | Quadrant (FIG. 5b) ([2]; primary HTS, 10 μM): Q4 | LPS % inhibition [3, 12]: 3% | LPS % cell toxicity [4, 13]: 0% | Fibrin % inhibition [5, 14]: −32%

CCCCC(CC)CNC(=N)NC(=N)NCCCCCCNC(=N)NC(=N)NCC(CC)CCCC (stereo not drawn) [Alexidine Hydrochloride]
Fibrin % cell toxicity [1, 15]: 5% | Quadrant (FIG. 5b) [2, 7]: Q2 | inhibition at 10 µM [3, 16]: 120% | LPS % cell toxicity [4, 17]: 9% | inhibition at 10 µM [5, 18]: 108%

CN(C)CCC(c1ccc(Br)cc1)c1ccccn1 (stereo not drawn) [Brompheniramine]
Fibrin % cell toxicity [1, 11]: 1% | Quadrant (FIG. 5b) ([2]; primary HTS, 10 μM): Q4 | inhibition at 10 µM [3, 12]: -7% | LPS % cell toxicity [4, 13]: −1% | inhibition at 10 µM [5, 14]: -20%

COc1cc(NS(=O)(=O)c2ccc(N)cc2)nc(OC)n1 [Sulfadimethoxine]
Fibrin % cell toxicity [1, 19]: 1% | Quadrant (FIG. 5b) [2, 20]: Q4 | inhibition at 10 µM [3, 21]: 13% | LPS % cell toxicity [4, 22]: 0% | inhibition at 10 µM [5, 23]: 42%

CCCCN1CCCC[C@H]1C(=O)Nc1c(C)cccc1C [Levobupivacaine]
Fibrin % cell toxicity [1, 6]: 1% | Quadrant (FIG. 5b) [2, 7]: Q4 | inhibition at 10 µM [3, 8]: -10% | LPS % cell toxicity [4, 9]: 0% | inhibition at 10 µM [5, 10]: 34%

Nc1ccc(S(=O)(=O)Nc2ccnn2-c2ccccc2)cc1 [Sulfaphenazole]
Fibrin % cell toxicity [1, 19]: 1% | Quadrant (FIG. 5b) [2, 20]: Q4 | inhibition at 10 µM [3, 21]: 14% | LPS % cell toxicity [4, 22]: 0% | inhibition at 10 µM [5, 23]: -4%

O=C(NCCN1CCOCC1)c1ccc(Cl)cc1 [Moclobemide]
Fibrin % cell toxicity [1, 15]: 1% | Quadrant (FIG. 5b) [2, 7]: Q4 | inhibition at 10 µM [3, 16]: 14% | LPS % cell toxicity [4, 17]: 0% | inhibition at 10 µM [5, 18]: -6%

CC(N)Cc1ccc(O)cc1 (stereo not drawn) [Hydroxyamphetamine]
Fibrin % cell toxicity [1, 6]: 1% | Quadrant (FIG. 5b) [2, 7]: Q4 | inhibition at 10 µM [3, 8]: -2% | LPS % cell toxicity [4, 9]: 0% | inhibition at 10 µM [5, 10]: -12%

Colistin Sulfate
Fibrin % cell toxicity [1, 15]: 1% | Quadrant (FIG. 5b) [2, 7]: Q1 | LPS % inhibition [3, 24]: 58% | LPS % cell toxicity [4, 17]: 1% | Fibrin % inhibition [5, 18]: 19%

Mepartricin
Fibrin % cell toxicity [1, 15]: 1% | Quadrant (FIG. 5b) [2, 7]: Q4 | LPS % inhibition [3, 24]: −1% | LPS % cell toxicity [4, 17]: 0% | Fibrin % inhibition [5, 18]: 6%

Cc1ncc([N+](=O)[O-])n1CC(O)CCl (stereo not drawn) [Ornidazole]
Fibrin % cell toxicity [1, 15]: 0% | Quadrant (FIG. 5b) [2, 7]: Q4 | inhibition at 10 µM [3, 16]: 12% | LPS % cell toxicity [4, 17]: 0% | inhibition at 10 µM [5, 18]: -22%

CC(=O)OCC1=C(C(=O)O)N2C(=O)[C@@H](NC(=O)Cc3cccs3)[C@H]2SC1 [Cefalotin]
Fibrin % cell toxicity [1, 11]: 1% | Quadrant (FIG. 5b) ([2]; primary HTS, 10 μM): Q4 | inhibition at 10 µM [3, 12]: 1% | LPS % cell toxicity [4, 13]: 0% | inhibition at 10 µM [5, 14]: 1%

Cc1ccc(C)c(OCCCC(C)(C)C(=O)O)c1 [Gemfibrozil]
Fibrin % cell toxicity [1, 6]: 0% | Quadrant (FIG. 5b) [2, 7]: Q4 | inhibition at 10 µM [3, 8]: 10% | LPS % cell toxicity [4, 9]: 0% | inhibition at 10 µM [5, 10]: -47%

COc1cc(C(=O)NCCCCCC(=O)O)cc(OC)c1OC [Capobenic Acid]
Fibrin % cell toxicity [1, 11]: 1% | Quadrant (FIG. 5b) ([2]; primary HTS, 10 μM): Q4 | inhibition at 10 µM [3, 12]: 16% | LPS % cell toxicity [4, 13]: 0% | inhibition at 10 µM [5, 14]: 9%

NS(=O)(=O)c1cc2c(cc1Cl)NC(C(Cl)Cl)NS2(=O)=O (stereo not drawn) [Trichlormethiazide]
Fibrin % cell toxicity [1, 19]: 1% | Quadrant (FIG. 5b) [2, 20]: Q4 | inhibition at 10 µM [3, 21]: 13% | LPS % cell toxicity [4, 22]: 0% | inhibition at 10 µM [5, 23]: 17%

C=CC[C@@H]1/C=C(\C)C[C@H](C)C[C@H](OC)[C@H]2O[C@@](O)(C(=O)C(=O)N3CCCC[C@H]3C(=O)O[C@H](/C(C)=C/[C@@H]3CC[C@@H](O)[C@H](OC)C3)[C@H](C)[C@@H](O)CC1=O)[C@H](C)C[C@@H]2OC [Tacrolimus]
Fibrin % cell toxicity [1, 19]: 1% | Quadrant (FIG. 5b) [2, 20]: Q4 | inhibition at 10 µM [3, 21]: 14% | LPS % cell toxicity [4, 22]: 0% | inhibition at 10 µM [5, 23]: 27%

C[N+](C)(CCOc1ccccc1)Cc1ccccc1.O=C([O-])c1cc2ccccc2cc1O [Bephenium Hydroxynapthoate]
Fibrin % cell toxicity [1, 11]: 1% | Quadrant (FIG. 5b) ([2]; primary HTS, 10 μM): Q4 | LPS % inhibition [3, 12]: 19% | LPS % cell toxicity [4, 13]: 0% | Fibrin % inhibition [5, 14]: 25%

O=C(O[C@H]1C[C@H]2CC[C@@H](C1)[N+]21CCCC1)C(O)(c1ccccc1)c1ccccc1 [Trospium Chloride]
Fibrin % cell toxicity [1, 19]: 0% | Quadrant (FIG. 5b) [2, 20]: Q4 | inhibition at 10 µM [3, 21]: 9% | LPS % cell toxicity [4, 22]: 1% | inhibition at 10 µM [5, 23]: -39%

Nc1nc(/C(=C/CC(=O)O)C(=O)N[C@@H]2C(=O)N3C(C(=O)O)=CCS[C@H]23)cs1 [Ceftibuten]
Fibrin % cell toxicity [1, 11]: 1% | Quadrant (FIG. 5b) ([2]; primary HTS, 10 μM): Q4 | inhibition at 10 µM [3, 12]: 12% | LPS % cell toxicity [4, 13]: 0% | inhibition at 10 µM [5, 14]: -7%

CCOc1nc2cccc(C(=O)O)c2n1Cc1ccc(-c2ccccc2-c2nnn[nH]2)cc1 [Candesartan]
Fibrin % cell toxicity [1, 11]: 1% | Quadrant (FIG. 5b) ([2]; primary HTS, 10 μM): Q4 | inhibition at 10 µM [3, 12]: 11% | LPS % cell toxicity [4, 13]: 0% | inhibition at 10 µM [5, 14]: 9%

O=C(Nc1ccc([N+](=O)[O-])cc1Cl)c1cc(Cl)ccc1O [Nicolsamide, Niclosamide]
Fibrin % cell toxicity [1, 15]: 1% | Quadrant (FIG. 5b) [2, 7]: Q4 | LPS % inhibition [3, 24]: 21% | LPS % cell toxicity [4, 17]: 1% | Fibrin % inhibition [5, 18]: −2%

Cl.N[C@H]1C(O)O[C@H](CO)[C@@H](O)[C@@H]1O (stereo partly drawn) [Glucosamine Hydrochloride]
Fibrin % cell toxicity [1, 6]: 1% | Quadrant (FIG. 5b) [2, 7]: Q4 | inhibition at 10 µM [3, 8]: 19% | LPS % cell toxicity [4, 9]: 0% | inhibition at 10 µM [5, 10]: -2%

CC1(C)[C@@H](OC(=O)CCC(=O)O)CC[C@]2(C)[C@H]3C(=O)C=C4[C@@H]5C[C@@](C)(C(=O)O)CC[C@]5(C)CC[C@@]4(C)[C@]3(C)CC[C@@H]12 [Carbenoxolone Sodium]
Fibrin % cell toxicity [1, 11]: 0% | Quadrant (FIG. 5b) ([2]; primary HTS, 10 μM): Q4 | inhibition at 10 µM [3, 12]: 6% | LPS % cell toxicity [4, 13]: 0% | inhibition at 10 µM [5, 14]: 16%

O=C1Nc2ccc(Cl)cc2C(c2ccccc2Cl)=NC1O (stereo not drawn) [Lorazepam]
Fibrin % cell toxicity [1, 6]: 1% | Quadrant (FIG. 5b) [2, 7]: Q4 | inhibition at 10 µM [3, 8]: -1% | LPS % cell toxicity [4, 9]: 0% | inhibition at 10 µM [5, 10]: -13%
